US20240299362A1, “EXOSOME PACKAGING AND TARGETED AUTOPHAGY” (University of Ottawa, priority 2017, published 2024)
No end group written: not given here. *: point of attachment. Biotin = O=C1N[C@H]2[C@H](CS[C@H]2CCCCC(=O)*)N1

Legend:
V0-ATPase complex = target: T1, V0-ATPase complex (Mus musculus, UniProt P63082); assay: Lysotracker staining of cells with V0-ATPase inhibitors; type: cell-based; details: MEF; 12 h treatment
T1 construct: endogenous in cells; MEF inferred)
Excerpt: If increased MVB acidification in Atg5^−/− cells causes the drop in exosome release, blocking acidification of MVB may promote exosome release.

Atg5^−/− MEF [1] = assay: Exosome production (dynamic light scattering, Western blot), Example 2; type: cell-based, mouse; details: BAF or ConA 12 h
Protocol: (§1) Exosomes were enriched by differential centrifugation as previously described (Thery et al., 2006). Briefly, MEF or MDA-MB-231 cells were cultured in media containing FBS depleted of exosomes by centrifugation at 100,000 g for 16 h (Thery et al., 2006). To purify exosomes supernatant from cell cultures was centrifuged at 400 g (7 min), 2000 g (10 min) and 10,000 g (30 min, SW32 rotor). At each step the supernatant was recovered. After centrifugation at 100,000 g (1 h 10 min, SW32 rotor) the supernatant was removed and the pellet was resuspended. The pellet was washed in PBS by a final centrifugation at 100,000 g (20 min, TLA100.3 rotor). The exosome-enriched pellet was re-suspended in PBS for further analyses.
(§2) Preparations of enriched exosomes were analyzed by dynamic light scattering on a Protein Solutions Dynapro Instrument using Dynamics V6 software. Data were acquired every 10 seconds at 4° C. and 10% laser power for at least 200 seconds per sample. The intensity (Cnt/s) and size (nm) were generated automatically by the instrument.
Preparations of enriched exosomes were analyzed using a Nanosight LM10 instrument with Nanoparticle Tracking Analysis software Version 2.3. Measurement temperature was 22° C. and time setting was 90 seconds. The analysis conditions were set as: Blur 3×3, Detection Threshold 3, Min Track Length 9, and Min Expected Size 30 nm. […]

Atg5^−/− MEF [2] = assay: Exosome production (nanoparticle tracking, dynamic light scattering, Western blot), Example 1; type: cell-based, mouse; details: Chloroquine 100 μM 16 h, NH4Cl 20 mM 30 min, Concanamycin, siRNA
Protocol: Exosomes were enriched by differential centrifugation as previously described (Thery et al., 2006). Briefly, cells were cultured in media containing 10% FBS previously depleted of exosomes by centrifugation at 100 000 g for 16 h (Thery et al., 2006). To purify exosomes, supernatant from cell cultures was centrifuged at 300 g (10 min), 2000 g (10 min) and 10,000 g (30 min, SW32 rotor). At each step the supernatant was recovered. After centrifugation at 100 000 g (1 h 10 min, SW32 rotor) the supernatant was removed and the pellet was resuspended. The pellet was washed in PBS by a final centrifugation at 100 000 g (20 min, TLA100.3 rotor). The exosome-enriched pellet was re-suspended in PBS for further analyses.
Preparations of enriched exosomes were analyzed using either a Nanosight (FIG. 1A,C) or a ParticleMetrix Zetaview Nanoparticle tracking instrument (all other graphs). […]
The Zeta View Nanoparticle Tracking instrument (ParticleMetrix) is calibrated for experiments following every instrument start-up. […] If the sample falls within the acceptable reading concentration range, video acquisition and analysis was performed using the following parameters. Acquisition Parameters: Sensitivity (85), Shutter speed (40), Frame rate per second (30), Resolution (Highest), Positions measured (11). […]
The analysis reports containing the particle size (nm) and concentration (particles/ml) were generated automatically. The particles between 45 nm and 105 nm were summed to quantify exosome-sized particles. In experiments in FIG. 5N,O measuring exosome production after treating cells with NH4Cl or Chloroquine for short time periods, background readings from exosome-depleted media alone were subtracted. […]

stress granules (G3BP1+) = assay: Stress granules remaining with scFv-LC3 fusion with or without mTOR inhibitor INK128; type: cell-based; details: arsenite 1 h, recovery 30 min, G3BP1+ staining
Protocol: Nucleic acids encoding the fusion constructs were stably transduced into cells using lentivirus to generate stable expression using the CMV promoter. Cells were cultured in Lonza Ultraculture medium for 24 h and exosomes were harvested by tangential flow filtration concentration and dialysis on a 750 kDa pore size. Exosomes were then incubated with target cells between 2-24 h. After this time point cells were lysed and levels of cytoplasmic TDP-43 were measured by western blot after elimination of nuclei. […] for 30 min and cells were fixed for immunofluorescence to measure the persistence of stress granules using antibodies targeting G3BP1, PABP or DDX3. The number of stress granules were compared to fusions like scFv VH7 with and without LC3. In some experiments cells were pre-treated for 2-24 h with mTOR inhibitors to induce autophagy.
Experiments were performed to assess whether elimination of anti-TDP-43 VH7 scFv targets by autophagy, triggered by scFv-LC3 fusion constructs, could be further enhanced by treatment with an autophagy-activating agent. In this example, mTOR inhibitor INK128 was used as the autophagy-activating agent.
Cells were transfected with scFv versus TDP-43 fused to LC3, and treated or not treated with the mTOR inhibitor INK128 to assess autophagy activation. […]

wild-type MEF = assay: Exosome production (dynamic light scattering, Western blot) with pp242; type: cell-based, mouse; details: pp242 1 μM
Protocol: as §1, §2

recombinant LC3 [3] = details: 10 nmoles peptide, 100 ng recombinant LC3
Protocol: (SEQ ID NO: 20). Fifteen μl of Dynabeads® MyOne™ Streptavidin T1 (Cat #65601, ThermoFisher) were washed with PBS, then 10 nmoles of biotinylated peptides and 100 ng of recombinant LC3 were added. The mixture was rotated at 4 C over night. The beads were then washed with PBS 3 times and collected for further western analysis.

recombinant LC3 [4] = details: competitive excess of peptide; cell lysate
Protocol: In brief, 0.5 μg of His-tagged recombinant LC3 (His-tag, Cat #ADI-APR-100-0200, Enzo Life Sciences) was rotated in 50 μl with 5 μl of His-tagged Dynabeads (Cat #10103D, Thermofisher) in a binding/wash buffer (50 mM Sodium Phosphate, pH 8.0, 150 mM NaCl, 0.01% Tween®-20, 0.5% Triton X-100) at room temperature (RT) for 10 min. Then 150 μl of binding/wash buffer containing 5% BSA was added to the tubes and rotated for 5 minutes. Tubes were placed on a magnet and supernatant discarded. Cell lysate (100 ul, 150 ug) collected in Pull-down Buffer (3.25 mM Sodium phosphate pH 7.4, 70 mM NaCl, 0.01% Tween®-20, 0.5% Triton X-100) was incubated on a roller for 10 min. Supernatant was discarded and beads were washed 4 times with 300 μl Binding/Wash Buffer. His-LC3 was eluted with 150 mM Imidazole, 50 mM Sodium phosphate pH 8.0, 300 mM NaCl, 0.01% Tween®-20 with gentle shaking for 5 min. Supernatants were separated from beads on a magnet. The median intensities of bands for p62, ATP6V1E1 and background were quantified over 3 independent experiments using ImageQuantTL (GE Healthcare).
Experiments with competitive peptides were performed as above, except 50 μmoles of peptide was added during incubation with cell lysate. […] (SEQ ID NO: 20).

exosomes = assay: Packaging of LC3 fusion proteins into exosomes (luciferase light, Western blot of exosomes); type: cell-based
Excerpt: FIG. 28 D and E show Western blots of exosomes transfected with Luciferase or Luciferase-LC3 fusion (D), or dsRed or dsRed-LC3 fusion (E). […] The scFv in this experiment was anti-TDP-43 VH7 antibody scFv. Detection of the fusion was by Western blot with anti-LC3 antibody or antibody vs. HA tag incorporated into the linker region in the fusion. […] In FIG. 29 C, expression of scFv-LC3 construct in cells was achieved using lentivirus. […] In FIG. 29 C, cells were expressing anti-TDP-43 antibody scFv clone Vh7. […] The inventors hypothesized that exosomes may deliver intrabody-LC3 chimeras with high efficiency to tissues like liver, small intestine and kidney (IV), and if injected (for example) into the spinal cord (as ASOs or AAV in patients in neurodegeneration), throughout the spinal cord and the brain. […]
Nucleic acids encoding the fusion constructs were stably transduced into cells using lentivirus to generate stable expression using the CMV promoter. […] After this time point cells were lysed and levels of cytoplasmic TDP-43 were measured by western blot after elimination of nuclei. […]
The data are for 3 scFv fused to LC3 derived from anti-TDP-43 VH7, anti-TDP-43 41D1, and anti-Tau 4E4. […] Cells were transduced with scFv-LC3 conjugates, and exosomes were purified from these and analyzed by Western blot. […]

T1 sequence (P51863 whole entry): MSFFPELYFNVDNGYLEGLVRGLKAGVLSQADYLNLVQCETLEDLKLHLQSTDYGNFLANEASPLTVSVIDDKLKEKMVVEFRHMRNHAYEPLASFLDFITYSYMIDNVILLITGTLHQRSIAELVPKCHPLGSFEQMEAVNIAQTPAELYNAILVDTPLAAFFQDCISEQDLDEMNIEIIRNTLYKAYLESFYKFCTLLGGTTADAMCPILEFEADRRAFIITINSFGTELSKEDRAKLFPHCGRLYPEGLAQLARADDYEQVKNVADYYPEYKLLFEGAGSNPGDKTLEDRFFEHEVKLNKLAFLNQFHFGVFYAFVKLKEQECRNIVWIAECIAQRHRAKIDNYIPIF
T1 sequence (Q9Z1G4 whole entry, further chain): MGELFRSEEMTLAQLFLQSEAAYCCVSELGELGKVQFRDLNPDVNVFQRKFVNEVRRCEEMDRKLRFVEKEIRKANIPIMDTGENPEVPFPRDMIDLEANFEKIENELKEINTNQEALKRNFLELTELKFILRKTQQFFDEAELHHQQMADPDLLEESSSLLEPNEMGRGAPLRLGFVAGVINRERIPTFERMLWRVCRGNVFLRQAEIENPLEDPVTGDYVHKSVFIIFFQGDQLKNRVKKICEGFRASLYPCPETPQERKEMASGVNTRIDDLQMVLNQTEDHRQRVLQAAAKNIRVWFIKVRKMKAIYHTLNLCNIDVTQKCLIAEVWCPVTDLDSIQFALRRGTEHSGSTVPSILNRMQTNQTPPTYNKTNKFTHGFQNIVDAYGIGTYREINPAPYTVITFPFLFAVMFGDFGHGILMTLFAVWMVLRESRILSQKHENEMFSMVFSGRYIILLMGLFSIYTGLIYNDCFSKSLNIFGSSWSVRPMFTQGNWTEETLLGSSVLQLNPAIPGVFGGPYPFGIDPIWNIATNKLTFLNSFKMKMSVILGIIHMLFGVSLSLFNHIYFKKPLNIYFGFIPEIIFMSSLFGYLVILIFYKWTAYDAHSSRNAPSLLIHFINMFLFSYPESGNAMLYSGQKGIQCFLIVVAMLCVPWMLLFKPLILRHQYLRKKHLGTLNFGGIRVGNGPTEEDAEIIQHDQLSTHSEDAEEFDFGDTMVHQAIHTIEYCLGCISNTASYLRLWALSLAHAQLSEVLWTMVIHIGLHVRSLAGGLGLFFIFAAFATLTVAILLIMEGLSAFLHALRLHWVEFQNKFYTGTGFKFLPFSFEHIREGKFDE
T1 sequence (Q91V37 whole entry, further chain): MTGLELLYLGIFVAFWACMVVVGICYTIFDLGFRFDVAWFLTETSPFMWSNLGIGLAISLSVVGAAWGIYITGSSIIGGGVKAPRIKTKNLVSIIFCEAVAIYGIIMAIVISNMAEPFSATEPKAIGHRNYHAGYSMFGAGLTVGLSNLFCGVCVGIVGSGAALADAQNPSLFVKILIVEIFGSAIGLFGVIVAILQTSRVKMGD
T1 sequence (P63082 whole entry): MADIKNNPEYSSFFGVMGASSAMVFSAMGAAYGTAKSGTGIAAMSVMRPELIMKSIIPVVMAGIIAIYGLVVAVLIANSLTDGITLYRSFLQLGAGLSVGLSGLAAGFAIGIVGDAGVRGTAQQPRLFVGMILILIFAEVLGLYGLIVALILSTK

CO/C1=C\C(C)=C\[C@@H](C)[C@@H](O)[C@@H](C)C/C(C)=C/C=C/[C@H](OC)[C@@H]([C@@H](C)[C@@H](O)[C@H](C)[C@@]2(O)C[C@@H](O)[C@H](C)[C@@H](C(C)C)O2)OC1=O [Bafilomycin A1] was tested, and the “staining of cells with Lysotracker” value (V0-ATPase complex) was “abrogated staining of cells with Lysotracker” and the “exosome production of Atg5^−/− cells” value (Atg5^−/− MEF [1]) was “restored exosome production”.
In the case of CCN(CC)CCCC(C)Nc1ccnc2cc(Cl)ccc12 (centres unmarked) [Chloroquine], the “exosome production in Atg5^−/− cells” value (Atg5^−/− MEF [2]) was “rescued exosome production”.
For CC(C)n1nc(-c2ccc3oc(N)nc3c2)c2c(N)ncnc21 [INK128], the “% of stress granules remaining” value (stress granules (G3BP1+)) was “did not have a measureable effect”.
In the case of Cl.N [NH4Cl], the “exosome production in Atg5^−/− cells” value (Atg5^−/− MEF [2]) was “rescued exosome production”.
CC(C)n1nc(-c2cc3cc(O)ccc3[nH]2)c2c(N)ncnc21 [pp242] was tested, and the exosome production (wild-type MEF) was “increased exosome production”.
For “Biotin-RCRKAILPLQKA [control mutated peptide]”, the “pulldown of recombinant LC3 by biotinylated peptide” value (“pulldown of recombinant LC3” below) (recombinant LC3 [3]) was “bound at background levels”.
“Biotin-RCRKQDFPLVKA [putative ATP6V1E1 LIR motif peptide]” was tested, and the “pulldown of recombinant LC3” value (recombinant LC3 [3]) was “bound at background levels”, the “competition of ATP6V1E1 pulldown by recombinant LC3” value (recombinant LC3 [4]) was “did not affect binding” and the “competition of p62 pulldown by recombinant LC3” value (recombinant LC3 [4]) was “did not affect binding”.
For Concanamycin A, the “staining of cells with Lysotracker” value (V0-ATPase complex) was “abrogated staining of cells with Lysotracker”, the “exosome production of Atg5^−/− cells” value (Atg5^−/− MEF [1]) was “restored exosome production” and the “exosome production in Atg5^−/− cells” value (Atg5^−/− MEF [2]) was “rescued exosome production”.
For “HJ8.5-LC3a: anti-Tau scFv HJ8.5 fused via linker and HA tag to LC3a (SEQ ID NO: 57)”, the “packaging of construct into exosomes” value (exosomes) was “packaged into exosomes”.
For “biotin-SGGDDDWTHLSS [p62 LIR motif peptide]”, the “pulldown of recombinant LC3” value (recombinant LC3 [3]) was “pulled down recombinant LC3”, the “competition of ATP6V1E1 pulldown by recombinant LC3” value (recombinant LC3 [4]) was “had no effect” and the “competition of p62 pulldown by recombinant LC3” value (recombinant LC3 [4]) was “competed with endogenous p62 binding”.
